# Measured values from patent US10610522B2, “Methods for retreating irritable bowel syndrome (IBS)” (Salix Pharmaceuticals, Inc., priority 2014, dated 2020).
# Test system: C. difficile infection (CDI)
# Assay: Double-blind non-inferiority trial rifaximin 400 mg TID vs vancomycin 125 mg QID, 10 days, C. difficile infection
# Format: in vivo, human
# Method: Criteria for entry into the trial were: • Age >=18 years old; • Had acute diarrhea at screening defined as >=3 unformed stools in the last 24 hours and at least one sign of enteric infection (fever, nausea, lose of appetite, vomiting, severe abdominal pain/discomfort); and • a positive C. diff stool toxin assay Endpoint:
# The primary efficacy endpoint of the study was defined as the proportion of subjects achieving clinical success. Specifically, clinical success was defined as the absence of severe abdominal pain at Test of Cure (TOC), absence of fever (<38° C.) at TOC, and <3 unformed stools for two consecutive days at TOC.
# Clinical success was defined as the: Absence of severe abdominal pain at TOC, absence of fever (<38° C.) at TOC, and <3 unformed stools for two consecutive days at TOC. Test of cure defined as Day 14+/−1 day.
# Recurrence was defined to be a diarrhea and a positive C. diff stool toxin assay that occurred after initial clinical success.
# Global cure of diarrhea was defined as subjects who were cured of diarrhea at TOC without recurrence at follow up.
# Subjects who completed the study without achieving clinical success were censored at Day 14
# [1] = Rifaximin N = 117, Vancomycin N = 115
# [2] = adjusting for concomitant medication usage, Rifaximin N = 109, Vancomycin N = 112
# [3] = adjusting for concomitant medication usage, Rifaximin N = 117, Vancomycin N = 115
# [4] = after initial clinical success, Rifaximin N = 67, Vancomycin N = 73
# [5] = all subjects, Rifaximin N = 117, Vancomycin N = 115
# [6] = at TOC, Rifaximin N = 108, Vancomycin N = 111
# [7] = at TOC, Rifaximin N = 117, Vancomycin N = 115
# [8] = cured at TOC without recurrence at follow up, Rifaximin N = 117, Vancomycin N = 115
# [9] = subgroup Age <65, at TOC, Rifaximin N = 69, Vancomycin N = 62
# [10] = subgroup Age >=65, at TOC, Rifaximin N = 39, Vancomycin N = 49
# [11] = subgroup Female, at TOC, Rifaximin N = 68, Vancomycin N = 64
# [12] = subgroup Male, at TOC, Rifaximin N = 40, Vancomycin N = 47
compound,measurement,setting,value
CN[C@H](CC(C)C)C(=O)N[C@H]1C(=O)N[C@@H](CC(N)=O)C(=O)N[C@H]2C(=O)N[C@H]3C(=O)N[C@H](C(=O)N[C@H](C(=O)O)c4cc(O)cc(O)c4-c4cc3ccc4O)[C@H](O)c3ccc(c(Cl)c3)Oc3cc2cc(c3O[C@@H]2O[C@H](CO)[C@@H](O)[C@H](O)[C@H]2O[C@H]2C[C@](C)(N)[C@H](O)[C@H](C)O2)Oc2ccc(cc2Cl)[C@H]1O [Vancomycin],Continuing Illness No: % of subjects,[1],86%
same,Continuing Illness No: number of subjects,[1],99
same,Continuing Illness Yes: % of subjects,[1],14%
same,Continuing Illness Yes: number of subjects,[1],16
same,Global Cure of Diarrhea No: % of subjects,[1],26%
same,Global Cure of Diarrhea No: number of subjects,[1],30
same,Diarrhea No: % of subjects,[2],73%
same,Diarrhea No: number of subjects,[2],82
same,Diarrhea Yes: % of subjects,[2],27%
same,Diarrhea Yes: number of subjects,[2],30
same,Clinical Success No: % of subjects,[3],40%
same,Clinical Success No: number of subjects,[3],46
same,Clinical Success Yes: % of subjects,[3],60%
same,Clinical Success Yes: number of subjects,[3],69
same,No Recurrence of CDI: % of subjects,[4],86%
same,No Recurrence of CDI: number of subjects,[4],63
same,Recurrence of CDI: % of subjects,[4],14%
same,Recurrence of CDI: number of subjects,[4],10
same,Recurrence No: % of subjects,[5],93%
same,Recurrence No: number of subjects,[5],105
same,Recurrence Yes: % of subjects,[5],7%
same,Recurrence Yes: number of subjects,[5],10
same,Diarrhea No: % of subjects,[6],81%
same,Diarrhea No: number of subjects,[6],90
same,Diarrhea Yes: % of subjects,[6],19%
same,Diarrhea Yes: number of subjects,[6],21
same,Fever No: % of subjects,[6],98%
same,Fever No: number of subjects,[6],109
same,Fever Yes: % of subjects,[6],2 (2%)
same,Fever Yes: number of subjects,[6],2 (2%)
same,Severe Abdominal Pain/Discomfort No: % of subjects,[6],86%
same,Severe Abdominal Pain/Discomfort No: number of subjects,[6],95
same,Severe Abdominal Pain/Discomfort Yes: % of subjects,[6],14%
same,Severe Abdominal Pain/Discomfort Yes: number of subjects,[6],16
same,Clinical Success No: % of subjects,[7],37%
same,Clinical Success No: number of subjects,[7],42
same,Clinical Success Yes: % of subjects,[7],64%
same,Clinical Success Yes: number of subjects,[7],73
same,Global Cure of Diarrhea Yes: % of subjects,[8],74%
same,Global Cure of Diarrhea Yes: number of subjects,[8],85
same,Adjusted mean number of unformed stools-ANOVA,"during the treatment period, Rifaximin N = 117, Vancomycin N = 115",1.90
same,Diarrhea: % of subjects,[9],19%
same,Diarrhea: number of subjects,[9],12
same,No Diarrhea: % of subjects,[9],81%
same,No Diarrhea: number of subjects,[9],50
same,Diarrhea: % of subjects,[10],18%
same,Diarrhea: number of subjects,[10],9
same,No Diarrhea: % of subjects,[10],82%
same,No Diarrhea: number of subjects,[10],40
same,Diarrhea: % of subjects,[11],17%
same,Diarrhea: number of subjects,[11],11
same,No Diarrhea: % of subjects,[11],83%
same,No Diarrhea: number of subjects,[11],53
same,Diarrhea: % of subjects,[12],21%
same,Diarrhea: number of subjects,[12],10
same,No Diarrhea: % of subjects,[12],79%
same,No Diarrhea: number of subjects,[12],37
